Results taken from patent US4175081A, “5-Substituted thiadiazole ureas” (priority 1977, dated 1979).

How the values were obtained:
[1] = system: Crabgrass (CG); assay: Pre-emergence herbicide test; type: in vivo, Digitaria sanquinalis; conditions: Digitaria sanguinalis, pre-emergence, 336 h, two weeks after treatment
Outline: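 Crabgrass (Digitaria sanquinalis) was surface seeded in 3' plastic pots of potting soil, covered with screened soil, and watered by sub-irrigation in greenhouse trays. Pots were seeded one day before spraying in a hood with a moving belt and fixed nozzle. Plants stayed in the greenhouse on sub-irrigation, and pre-emergence control was rated visually two weeks after treatment.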

[2] = system: Yellow foxtail grass (YF); assay: Pre-emergence herbicide test; type: in vivo, Setaria glauca; conditions: Setaria, 336 h, two weeks after treatment
Outline: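 Visual rating of injury/control made two weeks after a pre-emergence spray of 8 or 4 lbs active per acre (38 gal/acre) onto pots seeded the previous day. Greenhouse watering by sub-irrigation only.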

[3] = system: Johnson grass (JG); assay: Pre-emergence herbicide test; type: in vivo, Sorgum helepense; conditions: Sorghum halepense, 336 h, two weeks after treatment
Outline: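 Visual injury or control rating two weeks post-treatment, after pre-emergence spray of 8 or 4 lbs active per acre (38 gal/acre) onto pots sown the previous day. Greenhouse watering by sub-irrigation only.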

[4] = system: Amaranth pigweed (PW); assay: Pre-emergence herbicide test; type: in vivo, Amaranthus retroflexus; conditions: 336 h, two weeks after treatment
Outline: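 Visual injury or control ratings were made at two weeks on pre-emergence pots, sub-irrigated in the greenhouse. Seeds were sown a day before a hood spray delivering 8 lbs/acre (or 4 lbs/acre) of compound in 38 gallons per acre.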

[5] = system: Turnip (TP); assay: Pre-emergence herbicide test; type: in vivo, Brassica sp.; conditions: Brassica rapa, pre-emergence, 336 h, two weeks after treatment
Outline: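 In this pre-emergence greenhouse test, turnip was seeded on the surface of potting soil in 3' plastic pots, lightly covered with screened soil, and watered from below. One day later the pots were sprayed in a belt-fed spray hood. Watering continued only by sub-irrigation, and percent control was visually scored two weeks after treatment.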

[6] = system: Cotton (CT); assay: Pre-emergence herbicide test; type: in vivo, Gossypium hirsutum var. DPL smooth leaf; conditions: Gossypium hirsutum, 336 h, two weeks after treatment
Outline: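 Visual injury/control ratings were taken at two weeks post-spray. Pots seeded a day earlier received compound pre-emergence at 8 lbs/acre, or 4 lbs/acre, in a 38 gallon/acre spray volume, and were then held in the greenhouse, watered only from below.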

[7] = system: Bean (BN); assay: Pre-emergence herbicide test; type: in vivo, Phaseolus vulgaris var. Black Valentine; conditions: Phaseolus vulgaris, 336 h, two weeks after treatment
Outline: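 Visual injury/control ratings were taken two weeks post-spray on sub-irrigated Phaseolus vulgaris var. Black Valentine. Pots were sown a day before treatment. Pre-emergence spray delivered 8 lbs actual compound per acre (or 4 lbs/acre) at 38 gallons per acre.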

[8] = system: Yellow foxtail grass (YF); assay: Post-emergence herbicide test; type: in vivo, Setaria glauca; conditions: Setaria, 336 h, two weeks after treatment
Outline: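 Visual rating of injury/control made 2 weeks post-spray. Seedlings at a uniform growth stage in soil-filled pots received a hood spray of 8 lbs/acre active compound, 38 gallons/acre volume, with a 4 lbs/acre rate also formulated. Watering was by sub-irrigation only.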

[9] = system: Johnson grass (JG); assay: Post-emergence herbicide test; type: in vivo, Sorgum helepense; conditions: Sorghum halepense, 336 h, two weeks after treatment
Outline: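 Visual injury or control scores taken 2 weeks after a post-emergence spray of pot-grown plants. Application was 8 lbs/acre (or 4 lbs/acre) in 38 gal/acre. Plants were held in the greenhouse with sub-irrigation only.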

[10] = system: Amaranth pigweed (PW); assay: Post-emergence herbicide test; type: in vivo, Amaranthus retroflexus; conditions: 336 h, two weeks after treatment
Outline: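 Visual injury or control ratings were made two weeks after spraying, with greenhouse watering by sub-irrigation only. Treatment was post-emergence, when pigweed seedlings had 1 or 2 true leaves, at 8 lbs active compound per acre (4 lbs/acre formulations also made) in a 38 gallons-per-acre spray volume.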

[11] = system: Cotton (CT); assay: Post-emergence herbicide test; type: in vivo, Gossypium hirsutum var. DPL smooth leaf; conditions: Gossypium hirsutum, post-emergence, 336 h, two weeks after treatment
Outline: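 This greenhouse post-emergence test measured how well spray treatments controlled cotton. Seedlings of Gossypium hirsutum var. DPL smooth leaf, with expanded cotyledons and a first true leaf 1' in length, were sprayed with 50 ml formulations in a belt-fed spray hood. They were then returned to the greenhouse and watered only by sub-irrigation. Injury was scored visually as % control after two weeks.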

[12] = system: Corn (CN); assay: Post-emergence herbicide test; type: in vivo; conditions: Zea mays, 336 h, two weeks after treatment
Outline: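 Greenhouse seedlings grown in potting soil and sprayed post-emergence at 8 lbs compound/acre (formulations also made for 4 lbs/acre) in 38 gallons/acre spray volume. Watering by sub-irrigation only. Injury or control rated visually two weeks after treatment.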

[13] = system: Sinapis; assay: Field test, pre-emergence application; type: in vivo; conditions: reading 0 = no effect, 10 = completely killed, 14 and 20 days
Protocol: (§1) Tests have also been made for the compound of Example 1 with Sinapis, oats and wheat. This test was conducted according to the following procedure.
Forty rows, 70 feet long, were planted to weeds and crops. Two rows were planted on each bed. Beds were 40 inches apart from center to center. The two rows were about 10 inches apart on each bed. Beds were rolled prior to planting to provide a uniform smooth surface. Soil temperature at a depth of 11/2 inches was 66° F. at time of planting. Post-emergence applications were made by spraying bands across rows 10 feet wide using a self-propelled plot sprayer with a 10 foot boom equipped with Teejet 8001 flat spray nozzle tips and operated at 40 psi. A total of 84 fluid ounces of spray material was applied to three replicates. Each replicate plot was 10 feet wide by 66.67 feet long. […]
(§2) Eight days after the application, readings were made on the effect of the chemicals on each crop and weed in the post-emergence treatment. A reading of 0 was recorded if no effect was observed; 10 recorded if the plants were completely killed, and readings of 1 to 9 for intermediate kills. A second reading of the post-emergence treatments was made 14 days after the application.
Readings were made 14 and 20 days after the pre-emergence application.

[14] = system: Sinapis; assay: Field test, post-emergence application; type: in vivo; parameters: unit not given here; conditions: 2 lbs/acre, reading 0 = no effect, 10 = completely killed, 8 and 14 days
Protocol: as §1
Forty rows, 70 feet long, were planted to weeds and crops. Two rows were planted on each bed. Beds were 40 inches apart from center to center. The two rows were about 10 inches apart on each bed. Beds were rolled prior to planting to provide a uniform smooth surface. Soil temperature at a depth of 11/2 inches was 66° F. at time of planting. Post-emergence applications were made by spraying bands across rows 10 feet wide using a self-propelled plot sprayer with a 10 foot boom equipped with Teejet 8001 flat spray nozzle tips and operated at 40 psi. A total of 84 fluid ounces of spray material was applied to three replicates. Each replicate plot was 10 feet wide by 66.67 feet long.
as §2

[15] = Acute oral toxicity in rats; conditions: rat, in vivo
[16] = system: variety of crops and weed species; assay: Pre- and post-emergence herbicide tests, overall assessment of Tables III-VI; type: in vivo; conditions: data of Tables III-VI
Outline: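 Crops and weeds grown in potting soil were sprayed at 8 lbs. compound per acre in 38 gallons per acre, pre-emergence pots seeded one day before treatment. Injury or control was visually rated two weeks after treatment.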

## CNC(=O)Nc1nnc(C(F)(F)F)s1 [Example 1, 1-Methyl-3-[5-Trifluoromethyl-2-(1,3,4-Thiadiazolyl)] Urea]
[1]; 4 lb/acre
  pest or weed control at 4483.4 g/ha: 90%
[1]; 8 lb/acre
  pest or weed control at 8966.8 g/ha: 100%
[2]; 4 lb/acre
  pest or weed control at 4483.4 g/ha: 80%
[2]; 8 lb/acre
  pest or weed control at 8966.8 g/ha: 90%
[3]; 4 lb/acre
  pest or weed control at 4483.4 g/ha: 80%
[3]; 8 lb/acre
  pest or weed control at 8966.8 g/ha: 70%
[4]; 4 lb/acre
  pest or weed control at 4483.4 g/ha: 90%
[4]; 8 lb/acre
  pest or weed control at 8966.8 g/ha: 90%
[5]; 4 lb/acre
  pest or weed control at 4483.4 g/ha: 90%
[5]; 8 lb/acre
  pest or weed control at 8966.8 g/ha: 100%
[6]; 4 lb/acre
  pest or weed control at 4483.4 g/ha: 80%
[6]; 8 lb/acre
  pest or weed control at 8966.8 g/ha: 100%
[7]; 4 lb/acre
  pest or weed control at 4483.4 g/ha: 90%
[7]; 8 lb/acre
  pest or weed control at 8966.8 g/ha: 90%
[8]; 2 lb/acre
  pest or weed control: 50%
[8]; 4 lb/acre
  pest or weed control at 4483.4 g/ha: 90%
[8]; 8 lb/acre
  pest or weed control at 8966.8 g/ha: 100%
[9]; 2 lb/acre
  pest or weed control: 90%
[9]; 4 lb/acre
  pest or weed control at 4483.4 g/ha: 90%
[9]; 8 lb/acre
  pest or weed control at 8966.8 g/ha: 100%
[10]; 2 lb/acre
  pest or weed control at 2241.7 g/ha: 100%
[10]; 4 lb/acre
  pest or weed control at 4483.4 g/ha: 100%
[10]; 8 lb/acre
  pest or weed control at 8966.8 g/ha: 100%
[11]; 2 lb/acre
  pest or weed control at 2241.7 g/ha: 100%
[11]; 4 lb/acre
  pest or weed control at 4483.4 g/ha: 100%
[11]; 8 lb/acre
  pest or weed control at 8966.8 g/ha: 100%
[12]; 2 lb/acre
  pest or weed control: 70%
[12]; 4 lb/acre
  pest or weed control at 4483.4 g/ha: 100%
[12]; 8 lb/acre
  pest or weed control at 8966.8 g/ha: 100%
[13]; 1 lb/acre
  Pre-emergency activity, % control, Sinapis: 10 rating score (0–10 scale)
[13]; 2 lbs/acre
  Pre-emergency activity, % control, Sinapis: 10 rating score (0–10 scale)
[14]
  Post-emergence activity, % control, Sinapis: 10
[15]
  LD50: 436 mg/kg
[16]
  herbicidal effectiveness / selectivity, in words: extremely effective when applied to a variety of crops and weed species
